Earlier results in patent publication US6372707B1, “Cleaning compositions” (Lever Brothers Company, division of Conopco, Inc., priority 1997, dated 2002).

Details: for Water Solubility (g/100 g): grams of solid to form a saturated solution in 100 grams of water at 20° C.

Row | Water Solubility (g/100 g) | solubility in water (at 20° C.) | Structure (SMILES)
1 | 15 | – | O=P(O)(O)OP(=O)(O)OP(=O)(O)O [Sodium tripolyphosphate anhydrous]
2 | >100 | exceeding 100 gms per 100 ml water | NC(N)=O [Urea]

Row | Structure (SMILES) | Water Solubility (g/100 g) | solubility in water (at 20° C.)
3 | O=BO[O-].[Na+] [Sodium perborate anhydrous] | 3.7 | –
